Bounds are passed on as bounds.

The term melting point denotes the temperature of the solid-liquid transition. Turning to `COc1nc2cc(Cl)c(Cl)c(N(CC(C)O)S(C)(=O)=O)c2nc1OC` (racemic), the melting point fell in the range of 176 to 177 °C.
For the compound `COc1ccc(C2=NN(C(=O)c3cccnc3)CC2)c(OC)c1`, the melting point fell in the range of 112 to 113 °C.
For `OCCCCOCCCCOCCCCOCCCCOCCCCO`, the melting point lay within 34.5 to 36.5 °C.
`O=C(c1c[nH]c2cc(Cl)ccc12)C(F)(F)F` yielded a melting point of 256 to 258 °C.
Take `COC(=O)[C@]1(F)[C@@H]2[C@H]1C(=O)C[C@H]2O[Si](C)(C)C(C)(C)C`: the melting point lay within 70 to 71 °C.
To `COCc1ccc2c(c1S(N)(=O)=O)S(=O)(=O)C(C)C2` (stereo unspecified) belongs 115 °C.
Regarding `O=C(Nc1nc2ccccc2nc1Oc1ccccc1)N1CCN(C(c2ccccc2)c2ccccc2)CC1`, the melting point was 208 to 210 °C.
On to `CC1=NNC(=O)c2cccc3[nH]cc1c23`, for which the melting point was 335 to 336 °C.
As for `COc1ccc(C=Cc2nc3c(c(=O)n(C)c(=O)n3C)n2C)cc1`, the melting point is greater than 320 °C.
In turn, `CCOC(=O)c1cc2n(C)c3ccc(C)cc3c(=O)n2n1` came in with a melting point of 250 to 252 °C.
Under `CCOC(=O)CC1CCC2C3CC=C4C(C)(C)C(O)CCC4(C)C3CCC12C` (stereo unspecified) stands 127 to 129 °C; under `OP(O)C1(NC(c2ccccc2)c2ccccc2)CCCC1`, 204 to 205 °C.
In the case of `CC1CC(=O)NN=C1c1ccc2c(c1)N(S(C)(=O)=O)CCO2` (stereo unspecified), the melting point fell in the range of 207 to 212 °C.
For the compound `CCCCCC(C)C(C)c1cc(O)c2c3c(c(=O)oc2c1)SCC3` (stereo unspecified), the melting point lay within 165 to 166 °C.
Under `O=C(O)c1cc(Br)cnc1Cl` stands 174 to 177 °C.
`O=C(O)CC(O)(Cn1cncn1)c1ccc(F)cc1F` (stereo unspecified) showed a melting point of 185 to 187 °C.
Regarding `CN(CCOc1ccc(CC2SC(=O)NC2=O)cc1)c1nc2ccccc2s1` (stereo unspecified), the melting point was in the range of 167 to 168 °C.
Regarding `OCCn1cc(-c2ccc3nnn(Cc4ccc(F)cc4)c3n2)cn1`, the melting point lay within 204 to 206 °C.
Turning to `Nc1ncc(-c2ccc(C(F)(F)F)cc2)cc1C(F)(F)F`, the melting point was 168 °C.
`COc1cc2oc(-c3ccc(F)cc3)c(Br)c2c(OC)c1Br`: the melting point was in the range of 186 to 187 °C.
Under `COc1nc2cc([N+](=O)[O-])cc(C)c2nc1OC` stands 167 to 168 °C.
`N#Cc1cccc(C2OCCO2)n1`: the melting point was 64 °C.
`CCN(CC)Cc1[nH]c(C)c(-c2ccnc(Nc3ccc(F)cc3)n2)c1C` returned a melting point of 71.9 to 74.2 °C.
Regarding `CCSCC(=O)c1cc(C(C)(C)C)c(O)c(C(C)(C)C)c1`, the melting point was 133 to 134 °C.
As to `CCCC(=O)c1cnc2c(OCCCN(C)C)cccc2c1Nc1ccccc1C`, the melting point lay within 109 to 110 °C.
`COC(=O)c1ccc(NC(C)=O)c(NC(=O)C(COC(C)=O)OC(C)=O)c1` (stereo unspecified): the melting point was 130 to 134 °C.
Under `Cc1c(S(C)(=O)=O)ccc(C(=O)O)c1Cl` stands 230 to 231 °C; under `Cc1oc(-c2ccco2)nc1COc1ccc(COc2ncccc2C=O)cc1`, 109 to 110 °C; under `O=c1c(Br)c(OCc2ccccc2)ccn1Cc1cccc(C(F)(F)F)c1`, 182 °C.
To `CCc1ccc2c(c1)CCC21CCc2cc(CC)ccc21` belongs 236 to 239 °C; to `CCn1c(-c2ccccc2)c(C2=CCC(C(=O)O)(C(=O)O)CC2)c2ccccc21`, 111 to 112 °C.
Under `COc1ccc(-c2cn3ccc4ccccc4c3n2)cc1` stands 177 to 179 °C; under `CN1C(=O)C(C)(C)N=C(c2ccccc2F)c2cc([N+](=O)[O-])cc(Cl)c21`, 237 to 238 °C.
The compound `CN1CCC(c2c(O)cc(O)c3c(=O)cc(-c4ccccc4Cl)oc23)C1Cn1ccnc1` (stereo unspecified) gave a melting point of 249 to 250 °C.
As to `COc1cc(C2CCN(C[C@H](O)CO)CC2)ccc1Nc1ncc2ccc(-c3ccccc3OC)n2n1`, the melting point was in the range of 66 to 80 °C.
In the case of `Cc1ccccc1N1CCN(C2CCc3cc(O)ccc3C2)CC1` (stereo unspecified), the melting point lay in the range of 177 to 179 °C.

Source of the values: a melting point compilation (Tetko et al.; mined from patent text by program, amines drawn as free bases though some values may be those of a salt).
